Experimental data reported in patent publication US12491170B2, “Stable treprostinil prodrugs” (United Therapeutics Corporation, priority 2020, dated 2025).
Where two headings read alike, the source gives them in different places.

How the values were obtained:
[1] = dog
[2] = Stability in cryopreserved hepatocytes, dog; settings: for AUC: dog
Protocol: (§1) Mixed-gender human cryopreserved hepatocytes, male Sprague-Dawley rat cryopreserved hepatocytes, and male Beagle dog cryopreserved hepatocytes were purchased from XenoTech. The hepatocytes were thawed and prepared according to the vendor's instructions, pooled into Krebs Henseleit buffer (KHB, pH 7.4), and kept on ice prior to the experiments. […] The final DMSO content in the incubation mixture was ≤0.1%. […] Aliquots of the test article were withdrawn (n=1) at 0, 15, 30, 60, and 120 minutes. […] Aliquots of 7-HC were withdrawn (n=1) at 0 and 15 minutes. The reaction was immediately terminated by adding two volumes of ice-cold acetonitrile (ACN) to the test article samples and three volumes of ACN containing internal standard to the positive control samples. The samples were then mixed and centrifuged to precipitate proteins. An aliquot of the supernatant was then diluted with water and analyzed by LC-MS/MS against calibration standards prepared in a matched matrix. […] All test article samples were analyzed for the dosed prodrugs as well as the drug, treprostinil. The test article concentration was compared to the concentration at time 0 to determine the percent of test article remaining at each time point. Half-lives and clearance values were calculated using GraphPad software, fitting to a single-phase exponential decay equation.

[3] = Stability in cryopreserved hepatocytes, rat; settings: for AUC: rat
Protocol: as §1

[4] = Stability in cryopreserved hepatocytes, human; settings: for AUC: human
Protocol: as §1

[5] = Stability in liver microsomes, rat
Protocol: (§2) Mixed-gender human liver microsomes, male Sprague-Dawley rat liver microsomes, and male Beagle dog liver microsomes were purchased from XenoTech. The reaction mixture, minus NADPH, was prepared as described below. […] An aliquot of the reaction mixture (without cofactor) was equilibrated in a shaking water bath at 37° C. for 5 minutes. The reaction was initiated by the addition of cofactor, and the mixture was incubated in a shaking water bath at 37° C. Aliquots (200 μL) were withdrawn at 0, 10, 20, 30, and 60 minutes. Test article samples were immediately combined with 400 μL of ice-cold acetonitrile (ACN) to terminate the reaction. […] The samples were then mixed and centrifuged to precipitate proteins. Aliquots of the supernatant were removed, diluted 1:1 into distilled water containing internal standard, and analyzed by LC-MS/MS against calibration standards prepared in a matched matrix. All samples were analyzed for the dosed prodrugs as well as the drug, treprostinil. The test article concentration was compared to the concentration at time 0 to determine the percent of test article remaining at each time point. Half-lives and clearance were calculated using GraphPad software, fitting to a single-phase exponential decay equation.
(§3) • Liver Microsomes 0.5 mg/mL • NADPH (cofactor) 1 mM • Potassium Phosphate, pH 7.4 100 mM • Magnesium Chloride 5 mM • Test Article 1 μM

[6] = Stability in liver microsomes, human; settings: for AUC: human
Protocol: as §2, §3

[7] = Stability in liver microsomes, dog
Protocol: as §2, §3

[8] = rat

SMILES	AUC [1]	Trep Concentration (μM) 0 min [2]	Trep Concentration (μM) 15 min [2]	Trep Concentration (μM) 30 min [2]	Trep Concentration (μM) 60 min [2]	Trep Concentration (μM) 120 min [2]	AUC [2]	Trep Concentration (μM) 0 min [3]	Trep Concentration (μM) 15 min [3]	Trep Concentration (μM) 30 min [3]	Trep Concentration (μM) 60 min [3]	Trep Concentration (μM) 120 min [3]	AUC [3]	Trep Concentration (μM) 0 min [4]	Trep Concentration (μM) 15 min [4]	Trep Concentration (μM) 30 min [4]	Trep Concentration (μM) 120 min [4]	AUC [4]	Trep Concentration 0 min [5]	Trep Concentration 10 min [5]	also measured
CCCCCC(CCC1C(O)CC2Cc3c(cccc3OCC(=O)O)CC21)OC(=O)c1ccc(C)cc1 (stereo not shown) [XLVIII]	20.45 µmol·min/L	0 µM	0.0841 µM	0.115 µM	0.177 µM	0.214 µM	18.23 µmol·min/L	0 µM	0.1 µM	0.141 µM	0.221 µM	0.318 µM	24.16 µmol·min/L	0 µM	0.342 µM	0.304 µM	0.347 µM	37.91 µmol·min/L	0.0583 µM	0.0944 µM	Trep Concentration (μM) 60 min [4]: 0.345 µM; Trep Concentration 20 min [5]: 0.0864 µM; Trep Concentration 30 min [5]: 0.0909 µM; Trep Concentration 60 min [5]: 0.123 µM; Trep Concentration 0 min [6]: 0.202 µM; Trep Concentration 10 min [6]: 0.302 µM; Trep Concentration 20 min [6]: 0.322 µM; Trep Concentration 30 min [6]: 0.337 µM; Trep Concentration 60 min [6]: 0.352 µM; AUC [6]: 19.27 µmol·min/L; Trep Concentration 0 min [7]: 0.119 µM; Trep Concentration 10 min [7]: 0.219 µM; Trep Concentration 20 min [7]: 0.322 µM; Trep Concentration 30 min [7]: 0.366 µM; Trep Concentration 60 min [7]: 0.475 µM; AUC [8]: 5.76 µmol·min/L
CCCCCC(CCC1C(O)CC2Cc3c(cccc3OCC(=O)O)CC21)OC(=O)NCCO (stereo not shown) [LIX]	0.00 µmol·min/L	0 µM	0 µM	0.00416 µM	0.00836 µM	0.00907 µM	0.74 µmol·min/L	0 µM	0 µM	0 µM	0 µM	0 µM	0.00 µmol·min/L	0 µM	0 µM	0 µM	0 µM	0.00 µmol·min/L	0 µM	0 µM	Trep Concentration (μM) 60 min [4]: 0 µM; Trep Concentration 20 min [5]: 0 µM; Trep Concentration 30 min [5]: 0 µM; Trep Concentration 60 min [5]: 0 µM; Trep Concentration 0 min [6]: 0 µM; Trep Concentration 10 min [6]: 0 µM; Trep Concentration 20 min [6]: 0 µM; Trep Concentration 30 min [6]: 0 µM; Trep Concentration 60 min [6]: 0 µM; AUC [6]: 0.00 µmol·min/L; Trep Concentration 0 min [7]: 0 µM; Trep Concentration 10 min [7]: 0 µM; Trep Concentration 20 min [7]: 0 µM; Trep Concentration 30 min [7]: 0 µM; Trep Concentration 60 min [7]: 0 µM; AUC [8]: 0.00 µmol·min/L
CCCCCC(CCC1C(O)CC2Cc3c(cccc3OCC(=O)O)CC21)OC(=O)c1ccc(O)cc1 (stereo not shown) [LXVIII]	1.98 µmol·min/L	0 µM	0.0142 µM	0.00583 µM	0.00715 µM	0.0129 µM	1.05 µmol·min/L	0 µM	0 µM	0.00403 µM	0.00545 µM	0.00743 µM	0.56 µmol·min/L	0 µM	0.147 µM	0.194 µM	0.17 µM	20.45 µmol·min/L	0.00607 µM	0.00792 µM	Trep Concentration 20 min [5]: 0.0105 µM; Trep Concentration 30 min [5]: 0.0127 µM; Trep Concentration 60 min [5]: 0.0145 µM; Trep Concentration 0 min [6]: 0.201 µM; Trep Concentration 10 min [6]: 0.237 µM; Trep Concentration 20 min [6]: 0.246 µM; Trep Concentration 30 min [6]: 0.252 µM; Trep Concentration 60 min [6]: 0.178 µM; AUC [6]: 13.55 µmol·min/L; Trep Concentration 10 min [7]: 0.0246 µM; Trep Concentration 20 min [7]: 0.0324 µM; Trep Concentration 30 min [7]: 0.0375 µM; Trep Concentration 60 min [7]: 0.0382 µM; AUC [8]: 0.69 µmol·min/L
CCCCCC(CCC1C(O)CC2Cc3c(cccc3OCC(=O)O)CC21)OC(=O)COc1ccccc1 (stereo not shown) [LXV]	49.22 µmol·min/L	0.0135 µM	0.484 µM	0.465 µM	0.406 µM	0.373 µM	47.28 µmol·min/L	0.0517 µM	0.379 µM	0.289 µM	0.237 µM	0.2 µM	29.24 µmol·min/L	0.0193 µM	0.559 µM	0.515 µM	0.39 µM	52.16 µmol·min/L	0.889 µM	0.898 µM	Trep Concentration (μM) 60 min [4]: 0.452 µM; Trep Concentration 20 min [5]: 0.885 µM; Trep Concentration 30 min [5]: 0.888 µM; Trep Concentration 60 min [5]: 0.738 µM; Trep Concentration 0 min [6]: 0.921 µM; Trep Concentration 10 min [6]: 0.762 µM; Trep Concentration 20 min [6]: 0.67 µM; Trep Concentration 30 min [6]: 0.594 µM; Trep Concentration 60 min [6]: 0.351 µM; AUC [6]: 36.07 µmol·min/L; Trep Concentration 0 min [7]: 0.903 µM; Trep Concentration 10 min [7]: 0.912 µM; Trep Concentration 20 min [7]: 0.864 µM; Trep Concentration 30 min [7]: 0.801 µM; Trep Concentration 60 min [7]: 0.728 µM; AUC [8]: 51.11 µmol·min/L
CCCCC[C@H]1CC[C@@H]2[C@H]3Cc4cccc(OCC(=O)O)c4C[C@H]3C[C@H]2OC(=O)O1 [XXIV]	55.49 µmol·min/L	0.0779 µM	0.461 µM	0.438 µM	0.349 µM	0.296 µM	41.94 µmol·min/L	0.365 µM	0.581 µM	0.531 µM	0.482 µM	0.431 µM	58.02 µmol·min/L	0.041 µM	0.228 µM	0.264 µM	0.328 µM	33.55 µmol·min/L	0.779 µM	0.791 µM	Trep Concentration (μM) 60 min [4]: 0.312 µM; Trep Concentration 20 min [5]: 0.79 µM; Trep Concentration 30 min [5]: 0.802 µM; Trep Concentration 60 min [5]: 0.681 µM; Trep Concentration 0 min [6]: 0.326 µM; Trep Concentration 10 min [6]: 0.342 µM; Trep Concentration 20 min [6]: 0.341 µM; Trep Concentration 30 min [6]: 0.326 µM; Trep Concentration 60 min [6]: 0.23 µM; AUC [6]: 18.43 µmol·min/L; Trep Concentration 0 min [7]: 0.892 µM; Trep Concentration 10 min [7]: 0.975 µM; Trep Concentration 20 min [7]: 0.948 µM; Trep Concentration 30 min [7]: 0.945 µM; Trep Concentration 60 min [7]: 0.86 µM; AUC [8]: 45.96 µmol·min/L
